Measured values from patent US7052850B2, “Isolated human EDG-4 receptor” (priority 1997, dated 2006).
“Also recorded” adds a separate entry of the source.

Tested on: pcDNA3-transfected 293-EBNA cells
Experiment: NF-κB luciferase reporter in 293-EBNA cells, empty vector pcDNA3
Assay type: cell-based
Conditions: empty vector control; S1P, SPC 1-10 μM, LPA 10 μM, 20% FBS
Procedure: • 1) 150 mm plates of 293-EBNA obtained from Invitrogen (Cat. R620-07) with a confluency of 18 80% were used for transfection. • 2) 6.6 μg NF-κB-tk-p4Luc reporter DNA and 6.6 μg of pC3-redg4 (expressing rat EDG-4), or pcDNA3 DNA was diluted in 500 μl OPTI-MEM (Gibco; Cat. 31985-062) • 3) 96.8 μl Lipofectamine (Gibco; Cat. 18324-020) was diluted in 500 μl of OPTI-MEM. • 4) The 2 solutions were mixed gently and the tube was incubated for 30 min at room temperature. • 5) The 293-EBNA plates were washed once with PBS and 13 ml OPTI-MEM was added to each plate, • 6) 6 ml OPTI-UMM was added to each transfection tube and this was added to a plate of 293EBNA cells. The plates were left for 4 hrs at 37° C. in a 5% CO2 incubator. • 7) After 4 his, the media was removed and replaced with frest 10% FBS media. Day 2: • 1) Transfected cells were washed, typsinized with 1× tryspin, resuspended in 10 ml media and counted. • 2) 0.02×10 ^6 cells were plated per well of a 96-well Blackview plate coated with polyD-lysine. No cells were plated in the outside wells of the 96-well plate. Two 96-well plates were seeded for each transfection. Day 3: • 1) Cells were washed with PBS and 140 μl serum-free media (SFM) added to each well. Plates were incubated in 37° C. incubator for 6 hrs. • 2) After 6 hrs, media was removed and cells treated with compounds diluted in 0.5% FBS media (140 μl added to each well). The Following Treatments Were Used: pcDNA3:
Day 4 Luciferase Assay • 1) Luclite kit (Packard; Cat. 6016911) was used for luciferase assay. All reagents were brought to room temperature before use. • 2) Supernatant was transferred to a new 96-well plate and stored at −20 C. for […] IL-8 measurement. • 3) 50 μl 0.5 M HEPES pH 7.8 buffer (1 mM MgCl21 mM CaCl2) was addeded to all wells of 96-well plate. […] A stop plate was placed on top of the blackview plate to keep it in the dark. • 6) Plates were incubated at room temperature for 30 min. • 7) After incubation, plates were counted in a 12 detector Packard Top Count on a program without dark delay. […]

Row | Molecule | NF-κB reporter response in pcDNA3-transfected cells
1 | CCCCCCCCCCCCC/C=C/[C@@H](O)[C@@H](N)COP(=O)([O-])OCC[N+](C)(C)C [SPC, sphingosylphosphorylcholine] | No response; also recorded: No such induction
2 | lysophosphatidic acid [LPA] | no response
3 | CCCCCCCCCCCCC/C=C/[C@@H](O)[C@@H](N)COP(=O)(O)O [S1P, sphingosine 1-phosphate] | No increase in luciferase activity; also recorded: No response; also recorded: No such induction
